“Also recorded” adds a separate entry of the source.
Columns and labels:
[1] = Movement disorder in free-swimming zebrafish embryos; assay type: in vivo; settings: five days
Source text: Note that the embryos were not anesthetized. Scale bar: 0.1 mm.

[2] = system: KOPT-K1 cells with PP2A subunit inactivation; test: Drug sensitivity of KOPT-K1 sublines with CRISPR-Cas9 PP2A subunit knockout; assay type: cell-based, human; settings: 72 hours
Method: Two gRNAs with different target sequences were designed for each subunit (#1 and #2). Control gRNAs target luciferase gene. […] Data are presented as means±s.d. (n=3-5, biological replicates). ***P<0.001 by Student's t-test (FIG. 3A).
SMAP sensitivity in KOPT-K1 cells was measured after PP2A subunit inactivation. Only each subunit of PP2A was knocked out by CRISPR-Cas9 with unique gRNAs. […] Two gRNAs with different target sequences were designed for each subunit (#1 and #2). Control gRNAs target luciferase gene. Data are presented as means±s.d. (n=3-5, biological replicates). ***P<0.001 by Student's t-test (FIG. 3B).
To identify the subunits of PP2A that are essential for the antitumor activity of iPAP1, CRISPR-Cas9 was used to establish a series of sublines of KOPT-K1 T-ALL cells, each lacking one of the 19 specific PP2A subunits (FIG.1A-FIG. 2), and to examine their sensitivity to iPAP1-induced growth inhibition.
With this panel of PP2A subunit knockout cells in hand, we analyzed the PP2A subunits required for growth suppression by SMAPs, another class of allosteric activators of PP2A (Gutierrez et al., J. Clin. Invest. 124:644-655 (2014); Sangodkar et al., J. Clin. Invest. 127:2081-2090 (2017)). […] Both the PPP2R5E and PPP2R2A regulatory subunits of PP2A were among the most highly expressed in a series of 16 different T-ALL cell lines (FIG. 5A). Thus, the assembly of structurally different heterotrimeric PP2A complexes induced with either iPAP1 or SMAP cannot be attributed to imbalances in cellular expression levels of individual PP2A subunits, but likely stems from differences in the allosteric alterations of the A subunit protein resulting from the binding of these two classes of small molecules, which have different chemical structures.

[3] = biological target: T1, human dopamine receptor D2 (DRD2) (Homo sapiens, UniProt P14416); test: Dopamine receptor D2 inhibition assay (SRE-luciferase reporter in HEK293T cells); assay type: cell-based; settings: for inhibitory activity on DRD2: 0.5, 1, 2 and 4 μM for three hours with 2 μM dopamine
T1 construct: expressed in transfected cells; host or cells: HEK293T (pcDNA3 vectors)
Source text: (§1) The human dopamine receptor D2 (DRD2) and modified murine Gq5i cDNAs were inserted into pcDNA3 expression vectors. After verifying the PCR products by DNA sequencing, DRD2, Gq5i and the PathDetect pSRE-Luc Cis-Reporter Plasmid (#219080, Agilent Technologies) were transfected to HEK293T cells. As previously reported, Gq5i enables Gi/o-coupled receptor activity to be detected using a serum response element (SRE)-luciferase reporter gene (See, Conklin et al., Nature 363(6426):274-6 (1993); Al-Fulaij et al., J. Pharmacol. Exp. Ther. 321(1):298-307 (2007)). These cells were starved in FCS-free DMEM medium for six hours before incubating them with 2 μM dopamine hydrochloride (Sigma Aldrich) together with each of the compound at 0, 0.5, 1, 2 and 4 μM for three hours. The reporter activity was measured using Pierce™ Firefly Luciferase Glow Assay Kit (Thermo Fisher Scientific).
For IC50 calculation, KOPT-K1 cells were treated with each of the compounds at various concentrations for 72 hours, followed by the determination of viable cell numbers with PrestoBlue® cell viability reagent. For the PP2A phosphatase activity assay, KOPT-K1 cells were treated with each of the compounds at 10 μM for 3 hours before phosphatase activity was measured. Dopamine D2 receptor activity was monitored in HEK293T cells coexpressing the dopamine D2 receptor, modified G protein and SRE luciferase reporter. Cells were treated with each of the compound at 10 μM for 3 hours, then lysed for the luciferase reporter assay.
as §1, with “D2” for “D2 (DRD2)”, “363(6426):274-276” for “363(6426):274-6”, “0.5” for “0, 0.5, 1, 2 and 4”

KOPT-K1 cells = test: Microtubule and chromatin staining of cytospins; assay type: cell-based, human; settings: 24 hours
[4] = Peripheral blood platelet counts; assay type: in vivo, C57BL/6J mice; settings: 80 mg/kg/day intraperitoneally, seven consecutive days
Method: The peripheral blood platelet counts in C57BL/6J mice treated with either by DMSO or iPAP1 at 80 mg/kg/day intraperitoneally for seven consecutive days, were measured. […] Other blood cell counts were unchanged in treated compared to control mice. iPAP1 treatment of mice increased the platelet count, due to effects of the compound on endoreduplication of megakaryocytes.

[5] = system: KOPT-K1, SUPT-13 and RPMI-8402 cells; test: Dose-response viability in three T-ALL cell lines, 72 hours; assay type: cell-based, human
Method: Viable cells are shown on the Y axis as a percent of the DMSO control cells. Data are presented as means±s.d. (n=3). Data are presented as means±s.d. […] The IC50 for iPAP1 is 200 to 400 nM for these cell lines.
(Perrotti and Neviani, Cancer Metastasis Rev. 27(2):159-68 (2008); Sangodkar et al., J. Clin. Invest. 127(6):2081-2090 ([…])). […] Data are presented as means±s.d.

T1 sequence (P14416 whole entry): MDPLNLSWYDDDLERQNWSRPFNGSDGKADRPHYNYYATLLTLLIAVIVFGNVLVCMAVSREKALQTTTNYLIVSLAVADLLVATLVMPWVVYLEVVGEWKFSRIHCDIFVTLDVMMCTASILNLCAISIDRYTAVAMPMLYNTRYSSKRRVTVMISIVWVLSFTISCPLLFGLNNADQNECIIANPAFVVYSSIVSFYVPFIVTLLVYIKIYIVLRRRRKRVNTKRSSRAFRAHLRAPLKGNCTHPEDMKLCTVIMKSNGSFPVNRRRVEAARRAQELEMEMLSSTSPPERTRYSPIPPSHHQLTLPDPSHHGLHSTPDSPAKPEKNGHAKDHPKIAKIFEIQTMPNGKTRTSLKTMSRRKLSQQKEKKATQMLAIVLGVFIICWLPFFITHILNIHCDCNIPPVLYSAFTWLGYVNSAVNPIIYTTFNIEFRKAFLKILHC

Row | SMILES | swimming behaviour / movement disorder ([1]; 5 μM) | PP2A subunits whose knockout gives resistance ([2]; 5 μM) | inhibitory activity on DRD2 [3] | mitotic and microtubule phenotype (KOPT-K1 cells; 10 μM and 20 μM) | swimming behaviour / movement disorder ([1]; 2 μM) | other blood cell counts [4] | peripheral blood platelet counts [4] | PP2A subunits whose knockout gives resistance ([2]; 0.5 μM) | inhibitory activities on DRD2 ([3]; 0.5 μM for three hours with 2 μM dopamine) | inhibitory activity against DRD2 compared to PPZ ([3]; 10 μM for three hours) [%] | DRD2 inhibitory activity as share of the activity of PPZ ([3]; 0.5 to 4 μM) | less active in inhibiting DRD2 than PPZ ([3]; multiple molar concentrations) | mitotic and microtubule phenotype (KOPT-K1 cells; 2 μM and 5 μM) | IC50 ([5]; Homo sapiens, KOPT-K1, SUPT-13 and RPMI-8402, 72 hours) [nM] | more active than SMAP against T-ALL cells based on the IC50 ([5]; SUPT-13, KOPT-K1 and RPMI-8402) [fold]
1 | OCCN1CCN(CCCN2c3ccccc3Sc3ccc(Cl)cc32)CC1 [PPZ, perphenazine, reference compound] | exhibited movement disorders and swam upside down or on their sides | resistance to PPZ treatment only when the specific subunits PPP2R1A, PPP2CA or PPP2R5E were knocked out | strong inhibitory activity on DRD2 at 0.5 μM; also recorded: strong inhibitory activity of DRD2 activity at concentrations as low as 0.5 μM | prometaphase arrest at the monopolarity stage |  |  |  |  |  |  |  |  |  |  | 
2 | COc1ccc(C(=O)N2c3ccccc3Sc3ccc(Cl)cc32)cc1 [iPAP1] |  |  | no inhibitory activity of DRD2 signaling at concentrations up to 4 μM |  | swam upright | unchanged | significantly increased the platelet counts | resistance to iPAP1 treatment only when the PPP2R1A, PPP2CA or PPP2R5E subunits were disrupted | did not show inhibitory activities on DRD2 | ~1 | less than 1% | more than 100 fold | prometaphase arrest at the monopolarity stage | 200 to 400 | ~5
